The values below come from US20240226056A1, “Sleep or Post-Sleep Performance” (Vanda Pharmaceuticals Inc., priority 2018, published 2024).

The structures appear in SMILES notation. Entries after “also recorded” stand apart in the source; their conditions may differ.

Data set [1] can be described thus: Tasimelteon jet lag disorder (JLD) clinical program. The class given is in vivo, human. To be noted: individuals experiencing circadian advances of five to eight hours.
The conditions of data set [2]: preclinical models of acute phase-shifting and chronic re-entrainment; cited from earlier work.
The conditions of data set [3]: 10 mg, 20 mg, 50 mg and 100 mg daily doses; 5-hour advance in sleep-wake cycle; cited from earlier work.
Data set [4] can be described thus: Next-day driving performance on the CRCDS automobile driving simulator after a bedtime dose. The format is in vivo, human. To be noted: bedtime dose tasimelteon 20 mg or zopiclone 7.5 mg. As to the method: In this study, 48 healthy volunteers operate an automobile driving simulator the moming after being administered a bedtime dose of tasimelteon 20 mg, zopiclone 7.5 mg, or placebo. Volunteers are instructed to operate the driving simulator for about one hour with a speed of 55 mph while maintaining lane position.
Driving performance is assessed by a number of validated measures, including standard deviation from lateral position (SDLP), a measure of lane weaving.
An SDLP of 4.4 cm as compared to control is considered equivalent to the driving impairment associated with a blood alcohol content (BAC) of 0.05%, the threshold for drunk driving in many countries.

For data set [5] the following is noted: from prescribing information; cited from earlier work.

Consider `CCC(=O)NC[C@@H]1C[C@H]1c1cccc2c1CCO2` [tasimelteon], for which the “benefit in jet lag disorder (in words)” value in data set [1] is listed as “significant benefits”. Besides, in data set [2], the “chronobiotic activity (in words)” value is “potent chronobiotic activity”. For the same compound, the “shifting dim light melatonin onset and sleep efficacy relative to placebo (in words)” value in data set [3] is listed as “positive outcomes”.

Consider `CN1CCN(C(=O)OC2c3nccnc3C(=O)N2c2ccc(Cl)cn2)CC1` (stereo not drawn) [zopiclone], for which, in data set [4] (48 healthy volunteers, driving simulator 9 hours post-dose, about one hour at 55 mph), the “SDLP Difference (least squares means) vs Placebo” value was 4.14 cm. The “next-day driving impairment compared to placebo (in words)” value in data set [4] (evaluated nine hours after dosing) was “does significantly impair driving ability; also recorded: meaningful and significant effect on lane weaving”.

`Cc1ccc(-n2nccn2)c(C(=O)N2CCN(c3nc4cc(Cl)ccc4o3)CC[C@H]2C)c1` [BELSOMRA]: in data set [5], the “driving performance in clinical studies (in words)” value is listed as “clinically meaningful impaired driving performance in some subjects”.
